From US10285969B2, “Mangiferin-6-O-berberine salt and preparation method and use thereof” (CHANGZHOU DEZE MEDICAL SCIENCE CO., LTD, priority 2015, dated 2019)

Key:
[1] = Physical and chemical properties: solubility in solvents; assay type: physicochemical
Text: The chemical structure of the mangiferin-6-O-berberine salt is as follows: […]

[2] = Solubility in the hydrochloric acid solution of pH 1; assay type: physicochemical
Protocol: (§1) Sample A: Mangiferin-6-O-berberine salt dihydrate
(§2) Sample B: Mangiferin-berberine salt yielded using the method as disclosed in WO2010/145192A1.
2. Instrument: PHS-3C pH meter (Shanghai Kangyi)
Take pure water; add hydrochloric acid to adjust pH to 1 (25° C.±2° C.). Take the water 50 ml to different triangular flask; weigh up accurately 200 mg sample A and sample B which have been ground into powders and put them into the triangular flasks separately, shake and observe dissolved phenomena.
Take the water 50 ml to different triangular flasks; weigh up accurately sample A 400 mg and 600 mg which have been ground into powders and put the powders into the triangular flasks separately, shake and observe dissolving phenomena.

[3] = Stability under a high-humidity environment (moisture absorption weight gain); assay type: physicochemical
Protocol: as §1, §2
2. Instrument: One ten-thousandth electronic balance (Sartorius, Germany)
Weigh up accurately appropriate amount sample A in 3 glass gardens and sample B in 3 glass gardens separately; put the samples in a drug stability chamber with the condition being set to: 25° C./90% RH±5% RH and storage for 10 days. Weigh the samples accurately on the fifth day and tenth day; record the results of weighing and calculate weight percentage of moisture absorption.

AMPK = experiment: Activation of AMPK in L6 cells (Western blot of phospho-AMPK and phospho-ACC); assay type: cell-based, rat; conditions: 1.25-5 μmol/L, 3 hours, dose-dependent
Protocol: The mangiferin-6-O-berberine salt dihydrate yielded using the method as disclosed in the above examples dissolves in DMSO. Before use, the mangiferin-6-O-berberine salt dihydrate is diluted by a culture medium or HBS. The ultimate concentration of DMSO is no more than 0.2%.
The rat L6 cell line is purchased from the ATCC. HG-DMEM is purchased GIBCO™. Fetal bovine serum (FBS) is purchased from Hyclone. Anti-AMPK, anti-ACC, antiphospho-AMPK (Thr172), antiphospho-ACC (ser79) polyclonal antibodies are purchased from Cell Signal Technology.
L6 cells were grown in HG-DMEM containing 10% (v/v) FBS, 100 U/ml penicillin and 100 U/ml streptomycin in a humidified atmosphere of 5% CO2 at 37° C. When the cells covered 60%, the medium was switched to HG-DMEM with 2% FBS and the culture medium was replaced every two days until the cells differentiation reached 90%.
Cells in 6-well plates were starved in serum-free HG-DMEM, and then different concentration gradient samples were added into serum-free HG-DMEM; the concentration of DMSO is 0.2%. The samples incubated for 3 hours in the cells. […]
Samples were electrophoresed on 10% SDS-polyacrylamide gels, and transferred to […] membranes under 100V and 1-2 hours in the transmembrane instrument. Protein in the gel was transferred to nitrocellulose membrane under the state of half dry, and the band was determined by Ponceau S (Ponceau S). […]

[4] = system: non-alcoholic fatty liver combined with type 2 diabetes mellitus; experiment: Improvement of metabolic disorder indices in patients, oral tablets for six months; assay type: in vivo, human; conditions: after six months, tablets 75 mg two times per day oral
Protocol: The patients according to the criteria of diagnosing non-alcoholic fatty liver combined with type 2 diabetes mellitus oral administrated mangiferin-6-O-berberine salt tablets 75 mg (for the preparation method, reference may be made to Example 6) two times per day.

[5] = Pharmacokinetic comparison after single intragastric administration to SD rats; assay type: in vivo
Protocol: as §1
Sample B: Mangiferin-berberine salt yielded using the method disclosed in WO2010/145192A1.
A single intragastric administration of sample of A or B was given to SD rats at the dosage of 100 mg/kg and blood was sampled from jugular vein at 0, 0.083, 0.25, 0.5, 1, 1.5, 2, 3, 4, 5, 6, 7, 8, 12 and 24 h.
Preparation of the mangiferin reference solution: Mangiferin reference was weighed accurately and put into a 25 ml volumetric flask; methanol was added to make mangiferin dissolve, diluted to graduation. The mangiferin reference mother liquor is yielded for reserve. An appropriate amount of mangiferin reference mother liquor was taken out accurately and diluted to prepare the mangiferin reference solutions having a concentration of 2, 5, 10, 50, 100, 200 ng/ml.
Preparation of the berberine hydrochloride reference solution: The berberine hydrochloride reference was weighed accurately and put into a 25 ml volumetric flask; methanol was added to make the berberine hydrochloride dissolve, and dilute to graduation. The berberine hydrochloride reference mother liquor was yielded for reserve. An appropriate amount of berberine hydrochloride reference mother liquor was taken out accurately and diluted to prepare reference solution whose berberine concentration is 0.2, 0.5, 2, 10, 20, 50 ng/ml.
Preparation of the internal standard solution: Glibenclamide was weighed accurately and put into a 25 ml volumetric flask; acetonitrile was added to make glibenclamide dissolve, and dilute to graduation. The internal standard solution of glibenclamide was yielded, having a concentration of 50 ng/ml.
Blood sample processing method: Rat blood was put in a heparin anticoagulant centrifuge tube and centrifuged for 10 minutes at 6000 rpm, and the plasma was taken for reserve at −20° C. […]
The pharmacokinetic parameters are calculated with a non compartmental model in Pharsight Phoenix 6.3.

[6] = hydrochloric acid solution of pH 1
[7] = single intragastric 100 mg/kg, 0-24 h, n = 3, mean ± SD

COc1ccc2cc3[n+](cc2c1OC)CCc1cc2c(cc1-3)OCO2.O=c1c2cc(O)c([O-])cc2oc2cc(O)c([C@@H]3O[C@H](CO)[C@@H](O)[C@H](O)[C@H]3O)c(O)c12 [Mangiferin-6-O-berberine salt]
solubility in dilute hydrochloric acid ([1]; dilute hydrochloric acid): slightly soluble
solubility in methanol ([1]; methanol): slightly soluble
solubility in water ([1]; water): almost insoluble
solubility relative to the mangiferin-berberine salt disclosed in WO2010/145192A1 [2, 6]: three times
stability (of the solution) compared with the mangiferin-berberine salt disclosed in WO2010/145192A1 [2, 6]: much better
solubility in the hydrochloric acid solution of pH 1 ([2]; pH 1, 25° C.±2° C.): 12 mg/ml
weight percentage of moisture absorption (hygroscopicity) compared with the mangiferin-berberine salt disclosed in WO2010/145192A1 [3]: much smaller
phosphorylation of ACC (AMPK): enhances significantly
phosphorylation of AMPK (AMPK): enhances significantly
ALT ([4]; n = 8, mean ± SD, base line 136.50): 51.85 U/L
APRI index ([4]; n = 8, base line 0.447): 0.203
Urine microalbumin (1^+ is seen as 1) ([4]; n = 8, base line 0.60): 0
TG ([4]; n = 8, base line 3.56): 1.41 mmol/L
Atherogenic index (AI) ([4]; n = 8, base line 4.12): 3.10
HbA1C ([4]; n = 8, base line 7.18): 5.80%
Weight ([4]; n = 8, base line 73.35): 62.34 kg
AST ([4]; n = 8, base line 83.32): 39.20 U/L
Diastolic pressure ([4]; n = 8, base line 94.79): 76.39 mmHg
Systolic pressure ([4]; n = 8, base line 153.77): 125.86 mmHg
INS ([4]; n = 8, base line 197.99): 56.08 pmol/L
Liver color Doppler ultrasound ([4]; n = 8, base line fatty liver): normal
ISI ([4]; n = 8, base line −7.12): −5.80
AUC relative to that of the mangiferin-berberine salt ([5]; oral administration 100 mg/kg): 2 times
AUC0-t of Berberine in plasma [5, 7]: 669.72 ± 312.83 ng·h/mL
AUC0-t of Mangiferin in plasma [5, 7]: 1831.11 ± 510.25 ng·h/mL
